Legend:
Type in all cases: cell-based
[1] = tested on: rac1b mRNA in SH-SY5Y cells; experiment: Induction of rac1b splicing by oxidative stress, nested PCR of rac1b; conditions: 24 hours, subtoxic concentrations
Experimental: (§1) To test whether ROS production may affect the rac1/rac1b ratio SH-SY5Y cells were exposed to various ROS-inducing agents at the indicated concentrations for 24 hours and cell viability was determined using a LDH assay (Cytotox96, Promega).
(§2) SH-SY5Y cells were plated in 24 well plates (ATGC, France) at the initial density of 3*10^5 cells/well. After 24 hours, cells were treated with various ROS-inducing agents at the indicated concentrations. After 24 h incubation, a LDH assay was conducted to reveal cell viability and cells were processed for RNA extraction using Trizol.
(§3) To test the effect of ROS producing agents TBH and 6-OHDA on mRNA levels of rac1 and rac1b, SH-SY5Y cells were exposed to various ROS-inducing agents at the indicated concentrations for 24 hours and rac1 and rac1b were either coamplified using primers nm—006908_F1 and nm—006908_R1, or rac1b was specifically amplified in a nested PCR approach that sequentially used primers nm—006908_F1 and nm—006908_R1, then primers nm—006908_F2 and nm—006908_R1. GAPDH was amplified as control.

[2] = tested on: rac1 mRNA in SH-SY5Y cells; experiment: Effect of oxidative stress on rac1 levels, PCR of rac1; conditions: 24 hours
Experimental: as §1, §2, §3

[3] = tested on: rac1b mRNA in rat primary cortical cells; experiment: Induction of rac1b splicing by Abeta, nested PCR of rac1b mRNA; conditions: rat cortical cells exposed to Abeta for 24 hours; observed at 11.25 and 22.5 μM; two independent cultures
Experimental: Rat primary cortical cell cultures are sensitive to Abeta toxicity, the neurotoxicity of which involves different mechanisms such as calcium homeostasis dysregulation, accumulation of ROS, secondary excitotoxicity and caspase activation (Zhang et al, J Neurochem 1996, 67 (4) 1595-1606). Abeta peptide is dissolved in 100% HFIP (1,1,1,3,3,3-hexafluoro-2-propanol), then dryed out and resuspended in 100% DMSO and rediluted in DMEM/F12 without phenol red. The solution maturates by incubation at 37° C. during 72 h and Aβ oligomers are then added on 7 days cultures for 24 h. After 24 h incubation, cells were processed for RNA extraction using Trizol. A nested PCR approach was used for the amplification rac1b using the following primers: nm—006908_F1: […] (SEQ ID NO 9), nm—006908_R1: TGGCATTGAGTGCGAAGGC (SEQ ID NO 10), nm—006908_F2: AAAGACAAGCCGATTGCCG (SEQ ID NO 11). Rac1 was amplified following the first PCR of the protocol described below using primers nm—006908_F1 and nm—006908_R1. In these conditions, rac1b was not detected on gel due to its low quantity after single PCR amplification and was easily detected using primers nm—006908_F2 and nm—006908_R1 in the nested PCR. […]

Row | Compound | mRNA levels of rac1b [1] | mRNA levels of rac1 [2] | mRNA levels of rac1b [3]
1 | NCCc1cc(O)c(O)cc1O [6-OHDA, 6-hydroxydopamine] | dose dependent accumulation of rac1b | rac1 levels are not altered | 
2 | CC(C)(C)OO [TBH, t-butyl hydroperoxide] | dose dependent accumulation of rac1b | rac1 levels are not altered | 
3 | Abeta: fragment of Abeta42 containing the aminoacids 25 to 35 that reproduces the toxic mechanisms of Aβ42 (GSNKGAIIGLM; Amyloid-beta protein 42; UniProt P05067 696-706, looked up, fragment) |  |  | dose dependent accumulation of rac1b mRNA

Reference: patent US20090285820A1, “Methods of Treating Degenerative Disorders With Rac 1B Inhibitor” (priority 2006, published 2009)
